Test system: Heterodera glycines race 3
Assay: Soybean pot test, cyst count as indicator of nematode control
Type: in vivo
Conditions: 28 days after planting
From the text: A plug measuring 0.75 inch (approximately 1.9 cm) in diameter and 1 inch (approx. 2.5 cm) in depth was removed from each 3 inch diameter×8 inch deep (approx. 7.6×20 cm) plastic pot. Five thousand Heterodera glycines race 3 eggs were placed at the bottom of the plug hole. A soybean variety 3.6-B6 seed was placed on top of the inoculum. Six replicates were made for each treatment group. In addition to untreated control, the treatment groups were Pasteuria nishizawae, Bacillus firmus, and Pasteuria nishizawae+Bacillus firmus.
Bacillus firmus came applied as a seed treatment (available commercially, for example, from Bayer Crop Science as VOTIVO product, PONCHO/VOTIVO, having Bacillus firmus concentration at least 2×10^9 cfu/ml+clothianidin (0.13 mg/seed)). A point application containing Pasteuria nishizawae (approximately 5.0×10^9 spores) was applied directly to the seed in the pot. The plug was replaced in the hole to cover the seed. The soil was Vero Beach (Florida, USA) top soil, pH 5.9 (approximate composition sand 93%, silt 2%, clay 2%, organic matter 3%).
At 28 days after planting, plant height was measured and plants were removed from the pots. Soil was gently rinsed from the roots. The rinsed roots were placed in a 20 mesh over a 60 mesh sieve. The root system was blasted with water to remove cyst nematode females. The 20 mesh sieve was removed and the cysts were washed to the bottom of the 60 mesh sieve. The cysts were rinsed into a tube for counting under a stereoscope. Later the dry root weights were measured.

Pasteuria nishizawae
Average Cyst Count (5000 eggs per pot, average of six replicates): 366
Cyst Count (5000 eggs per pot, cysts washed from roots, average of six replicates): 366
% Control Observed (from cyst count versus untreated control): 2.40%

Reference: patent US9149044B2, “Pesticidal compositions” (Syngenta Participations AG, priority 2011, dated 2015)
